From US20100041089A1, “IMPROVED METHOD FOR DETECTING CHEMICAL […]” (priority 2006, published 2010)

System: yeast genes (expressed mRNA)
Test: DNA chip measurement of expressed mRNA of yeast genes after culture with a toxic chemical substance
Type: cell-based, Saccharomyces cerevisiae S288C
Conditions: for level of expressed mRNA in the presence of chemical substance / level in the absence of chemical substance: cultured two hours with the chemical substance; for The level of expressed mRNA in the presence of chemical substance/The level of expressed mRNA in the absence of chemical substance: cultured two hours with substance
How it was run: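 Fluorescence ratio, treated over untreated, read by chip scanner; ratio of two or more counted significant. Cells: S288C yeast, YPD, 25° C, chemical added at log phase for 2 h at growth-inhibiting, sublethal level. Cy3/Cy5-labeled cDNA from oligo-dT-purified mRNA.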

[Cl][Hg][Cl] [(3), HgCl2]
level of expressed mRNA in the presence of chemical substance / level in the absence of chemical substance (yeast gene YDR128W): 1.4
level of expressed mRNA in the presence of chemical substance / level in the absence of chemical substance (yeast gene YDR133C): 2.9
level of expressed mRNA in the presence of chemical substance / level in the absence of chemical substance (yeast gene YDR250C): 0.9
level of expressed mRNA in the presence of chemical substance / level in the absence of chemical substance (yeast gene YDR278C): 0.9
level of expressed mRNA in the presence of chemical substance / level in the absence of chemical substance (yeast gene YDR281C): 0.4
The level of expressed mRNA in the presence of chemical substance/The level of expressed mRNA in the absence of chemical substance (yeast gene YDR330W): 1.2
level of expressed mRNA in the presence of chemical substance / level in the absence of chemical substance (yeast gene YDR366C): 0.8
The level of expressed mRNA in the presence of chemical substance/The level of expressed mRNA in the absence of chemical substance (yeast gene YDR411C): 1.8
The level of expressed mRNA in the presence of chemical substance/The level of expressed mRNA in the absence of chemical substance (yeast gene YDR511W): 0.9
The level of expressed mRNA in the presence of chemical substance/The level of expressed mRNA in the absence of chemical substance (yeast gene YDR545W): 0.6
The level of expressed mRNA in the presence of chemical substance/The level of expressed mRNA in the absence of chemical substance (yeast gene YEL001C): 1.4
The level of expressed mRNA in the presence of chemical substance/The level of expressed mRNA in the absence of chemical substance (yeast gene YER004W): 1.9
The level of expressed mRNA in the presence of chemical substance/The level of expressed mRNA in the absence of chemical substance (yeast gene YER035W): 1.6
The level of expressed mRNA in the presence of chemical substance/The level of expressed mRNA in the absence of chemical substance (yeast gene YER079W): 1.9
The level of expressed mRNA in the presence of chemical substance/The level of expressed mRNA in the absence of chemical substance (yeast gene YER106W): 1.3
The level of expressed mRNA in the presence of chemical substance/The level of expressed mRNA in the absence of chemical substance (yeast gene YER158C): 0.9
The level of expressed mRNA in the presence of chemical substance/The level of expressed mRNA in the absence of chemical substance (yeast gene YER163C): 1.2
The level of expressed mRNA in the presence of chemical substance/The level of expressed mRNA in the absence of chemical substance (yeast gene YER175C): 1.3
The level of expressed mRNA in the presence of chemical substance/The level of expressed mRNA in the absence of chemical substance (yeast gene YFL006W): 1.6
The level of expressed mRNA in the presence of chemical substance/The level of expressed mRNA in the absence of chemical substance (yeast gene YFL010C): 1.3
The level of expressed mRNA in the presence of chemical substance/The level of expressed mRNA in the absence of chemical substance (yeast gene YFL024C): 1.1
The level of expressed mRNA in the presence of chemical substance/The level of expressed mRNA in the absence of chemical substance (yeast gene YFL032W): 1.6
level of expressed mRNA in the presence of chemical substance / level in the absence of chemical substance (yeast gene YFR026C): 1.0
The level of expressed mRNA in the presence of chemical substance/The level of expressed mRNA in the absence of chemical substance (yeast gene YGL037C): 6.5
The level of expressed mRNA in the presence of chemical substance/The level of expressed mRNA in the absence of chemical substance (yeast gene YGL047W): 1.6
The level of expressed mRNA in the presence of chemical substance/The level of expressed mRNA in the absence of chemical substance (yeast gene YGL053W): 1.2
level of expressed mRNA in the presence of chemical substance / level in the absence of chemical substance (yeast gene YGL088W): 0.9
The level of expressed mRNA in the presence of chemical substance/The level of expressed mRNA in the absence of chemical substance (yeast gene YGL121C): 1.4
The level of expressed mRNA in the presence of chemical substance/The level of expressed mRNA in the absence of chemical substance (yeast gene YGL199C): 1.7
level of expressed mRNA in the presence of chemical substance / level in the absence of chemical substance (yeast gene YGR038W): 3.5
The level of expressed mRNA in the presence of chemical substance/The level of expressed mRNA in the absence of chemical substance (yeast gene YGR101W): 1.2
The level of expressed mRNA in the presence of chemical substance/The level of expressed mRNA in the absence of chemical substance (yeast gene YGR110W): 2.2
The level of expressed mRNA in the presence of chemical substance/The level of expressed mRNA in the absence of chemical substance (yeast gene YGR130C): 0.6
level of expressed mRNA in the presence of chemical substance / level in the absence of chemical substance (yeast gene YGR139W): 0.8
The level of expressed mRNA in the presence of chemical substance/The level of expressed mRNA in the absence of chemical substance (yeast gene YGR154C): 2.2
The level of expressed mRNA in the presence of chemical substance/The level of expressed mRNA in the absence of chemical substance (yeast gene YGR221C): 0.9
level of expressed mRNA in the presence of chemical substance / level in the absence of chemical substance (yeast gene YGR243W): 9.4
level of expressed mRNA in the presence of chemical substance / level in the absence of chemical substance (yeast gene YGR293C): 1.6
level of expressed mRNA in the presence of chemical substance / level in the absence of chemical substance (yeast gene YHL006C): 0.9
level of expressed mRNA in the presence of chemical substance / level in the absence of chemical substance (yeast gene YHR095W): 1.5
level of expressed mRNA in the presence of chemical substance / level in the absence of chemical substance (yeast gene YHR105W): 2.4
The level of expressed mRNA in the presence of chemical substance/The level of expressed mRNA in the absence of chemical substance (yeast gene YHR138C): 2.2
level of expressed mRNA in the presence of chemical substance / level in the absence of chemical substance (yeast gene YHR181W): 2.4
The level of expressed mRNA in the presence of chemical substance/The level of expressed mRNA in the absence of chemical substance (yeast gene YHR199C): 3.2
The level of expressed mRNA in the presence of chemical substance/The level of expressed mRNA in the absence of chemical substance (yeast gene YIL023C): 2.1
The level of expressed mRNA in the presence of chemical substance/The level of expressed mRNA in the absence of chemical substance (yeast gene YIL041W): 2.1
The level of expressed mRNA in the presence of chemical substance/The level of expressed mRNA in the absence of chemical substance (yeast gene YIL087C): 3.4
level of expressed mRNA in the presence of chemical substance / level in the absence of chemical substance (yeast gene YIL127C): 0.2
level of expressed mRNA in the presence of chemical substance / level in the absence of chemical substance (yeast gene YJL017W): 3.5
level of expressed mRNA in the presence of chemical substance / level in the absence of chemical substance (yeast gene YJL037W): 1.4
The level of expressed mRNA in the presence of chemical substance/The level of expressed mRNA in the absence of chemical substance (yeast gene YJL057C): 1.6
The level of expressed mRNA in the presence of chemical substance/The level of expressed mRNA in the absence of chemical substance (yeast gene YJL066C): 1.2
The level of expressed mRNA in the presence of chemical substance/The level of expressed mRNA in the absence of chemical substance (yeast gene YJL082W): 2.4
